Marks after values point to notes of the source that are not given here.
Experiments:
[1] = Formation of ternary complex encapsulating various substances: particle diameter by DLS or FCS; type: physicochemical; conditions: for Particle diameter of encapsulated substance: substance alone
Protocol: Ternary complexes were formed using not only the GFP protein but also a small molecule medicine, a peptide, an adeno-associated virus, an inorganic particle, a nucleic acid, and the like, and the particle diameter change was measured. As the measurement method, dynamic light scattering (DLS) or fluorescence correlation spectroscopy (FCS) was used.
Temperature: 25° C., measurement time: 10 seconds, number of integrations: 10 times
The method for measuring dynamic light scattering is as follows. Dynamic Light Scattering (DLS Zetasizer Nano ZS (manufactured by Malvern Instruments) was used to carry out DLS measurement at a detection angle of […] and a temperature of 25° C. A He—Ne laser (633 nm) was used as the incident beam. Each complex solution was added to a small glass cuvette (capacity: 12 μL, ZEN2112, manufactured by Malvern Instruments). The data obtained from the decay rate in the photon correlation function was analyzed by the Cumulant method, and then the hydrodynamic diameter (the arithmetic mean diameter based on the number of complexes) of each complex was calculated by the above Einstein-Stokes equation. […]
The pitavastatin solution and the tannic acid solution were mixed to adjust a pitavastatin/TA solution. Then, PEG-P[Lys(FPBA)10]20 was added to the pitavastatin/TA solution to adjust a pitavastatin/TA/PEG-P[Lys(FPBA)10]20 (a pitavastatin ternary complex) solution. […]

[2] = Bonding force by alizarin red method, PEG-FPBA; type: binding; conditions: Ex 468 nm/Em 572 nm
Protocol: The bonding force was evaluated by the alizarin red method, which has been established as a method for quantifying the bonding force between boronic acid and the diol structure. The principle of the alizarin red method is briefly shown below by taking the method carried out in present Examples as an example. […]
Solution A, and Solution B or Solution C were mixed in various ratios and the fluorescence measurement was performed (Ex=468 nm, Em=572 nm) using a disposable cell. After substituting the obtained fluorescence intensity and the concentration of each FPBA into the following expression (1) and creating a calibration curve by the least squares method, the equilibrium constant K0 of the ARS-FPBA system was calculated from the slope of the calibration curve. Next, Solution B or Solution C was mixed with Solution D, E, F, or G containing each diol compound in various ratios in the combination of B+D, B+E, C+F, and C+G, and the fluorescence measurement was performed (Ex=468 nm, Em=572 nm) using a disposable cell. After substituting the obtained fluorescence intensity and the concentration of each diol compound into the following expression (2) and creating a calibration curve by the least squares method, the equilibrium constant K1 of each diol compound-BPA system was calculated from the slope of the calibration curve. […]

[3] = Bonding force by alizarin red method, PEG-P[Lys(FPBA)10]20; type: binding; conditions: for relative equilibrium constant with PEG10k-P[Lys(FPBA)10]20: alizarin red method, Ex 468 nm/Em 572 nm
Protocol: The bonding force was evaluated by the alizarin red method, which has been established as a method for quantifying the bonding force between boronic acid and the diol structure. The principle of the alizarin red method is briefly shown below by taking the method carried out in present Examples as an example.
[Final Concentrations of GFP, TA, PEG-FPBA, and PEG-P[Lys(FPBA)10]20] • Solution A: ARS (9.0×10^−6 M) • Solution B: ARS (9.0×10^−6 M)+PEG-FPBA (FPBA concentration: 2.0×10^−3 M) • Solution C: ARS (9.0×10^−6 M)+PEG-P[Lys(FPBA)10]20 (FPBA concentration: 2.0×10^−3 M) • Solution D: ARS (9.0×10^−6 M)+PEG-FPBA (FPBA concentration: 2.0×10^−3 M)+tannic acid (diol concentration=5.0×10^−4 M) • Solution E: ARS (9.0×10^−6 M)+PEG-FPBA (2.0×10^−3 M)+gallic acid (diol concentration=5.0×10^−4 M) • Solution F: ARS (9.0×10^−6 M)+PEG-P[Lys(FPBA)10]20 (FPBA concentration: 2.0×10^−3 M)+tannic acid (diol concentration=5.0×10^−4 M) • Solution G: ARS (9.0×10^−6 M)+PEG-P[Lys(FPBA)10]20 (FPBA concentration: 2.0×10^−3 M)+gallic acid (diol concentration=5.0×10^−4 M)
Solution A, and Solution B or Solution C were mixed in various ratios and the fluorescence measurement was performed (Ex=468 nm, Em=572 nm) using a disposable cell. After substituting the obtained fluorescence intensity and the concentration of each FPBA into the following expression (1) and creating a calibration curve by the least squares method, the equilibrium constant K0 of the ARS-FPBA system was calculated from the slope of the calibration curve. Next, Solution B or Solution C was mixed with Solution D, E, F, or G containing each diol compound in various ratios in the combination of B+D, B+E, C+F, and C+G, and the fluorescence measurement was performed (Ex=468 nm, Em=572 nm) using a disposable cell. After substituting the obtained fluorescence intensity and the concentration of each diol compound into the following expression (2) and creating a calibration curve by the least squares method, the equilibrium constant K1 of each diol compound-BPA system was calculated from the slope of the calibration curve. The equilibrium constant obtained from the calibration curve is shown in Table 2 as a relative equilibrium constant.
[formula] • [L0]=Concentration of FPBA added • [S0]=Concentration of diol added • [I0]=Concentration of ARS
ΔIf=Ifs−Ifa • ΔIfc=Reciprocal of intercept of graph created in ARS-FPBA system • Ifs=Fluorescence intensity of ARS-FPBA • Ifa=Fluorescence intensity of solution A • K0=Equilibrium constant of ARS-FPBA • Kf=Equilibrium constant of diol compound—equilibrium constant of FPBA

[4] = Pharmacokinetics of rose bengal ternary complex (blood retention); type: in vivo, mouse; conditions: 3 hours after intravenous administration, plasma fluorescence
Protocol: [Final Concentrations of rose bengal, TA, and PEG-P[Lys(FPBA)10]20] • Rose bengal: 0.1 mg/mL • Tannic acid: 1.0 mg/mL • PEG-P[Lys(FBPA)10]20: 16.5 mg/mL
The rose bengal solution and the tannic acid solution were mixed to adjust a rose bengal/TA solution. Then, PEG-P[Lys(FPBA)10]20 was added to the rose bengal/TA solution to adjust a rose bengal solution, a rose bengal/TA complex solution, and a rose bengal/TA/PEG-P[Lys(FPBA)10]20 (a rose bengal ternary complex) solution.
200 μl of the prepared solution described above was intravenously administered to the tail vein of the model mouse. One to three hours after the sample administration, dissection was carried out to recover blood, which was subsequently subjected to centrifugation at 5,000 g×10 minutes at 20° C. to recover 100 μl of a plasma component, and 700 μl of Passive Lysis Buffer was added thereto. Then, the fluorescence intensities (Ex/Em: 520 nm/570 nm) of the plasma component and the administered sample were measured with Spark to evaluate the blood retention. In the figure, rose bengal/TA/PEG-P[Lys(FPBA)10]20 is denoted by a rose bengal/TA/polymer.

C=Cc1c(C)c2cc3nc(c(CC(=O)O)c4[nH]c(cc5nc(cc1[nH]2)C(C)=C5CC)c(C)c4C(=O)O)[C@@H](CCC(=O)O)[C@@H]3C [Chlorine 6, Chlorin e6]
Particle diameter of encapsulated substance [1]: 1.2 nm

O=C(O)c1cc(O)c(O)c(O)c1 [Gallic acid]
relative equilibrium constant with PEG-FPBA [2]: 2,030
bonding constant with PEG-P[Lys(FPBA)10]20 as compared with PEG-FPBA [3]: 2.5 times
relative equilibrium constant with PEG10k-P[Lys(FPBA)10]20 [3]: 5,112

O=C([O-])C[C@H](O)C[C@H](O)/C=C/c1c(C2CC2)nc2ccccc2c1-c1ccc(F)cc1.O=C([O-])C[C@H](O)C[C@H](O)/C=C/c1c(C2CC2)nc2ccccc2c1-c1ccc(F)cc1.[Ca+2] [Pitavastatin calcium]
Particle diameter of encapsulated substance [1]: Aggregated
Particle diameter of encapsulated substance ([1]; listed as pitavastatin): 4586 nm

O=C(O)c1c(Cl)c(Cl)c(Cl)c(Cl)c1-c1c2cc(I)c(=O)c(I)c-2oc2c(I)c(O)c(I)cc12 [Rose bengal]
Particle diameter of encapsulated substance [1]: 0.7 nm
concentration in blood [4]: about 0.22%

O=C(OC[C@H]1O[C@@H](OC(=O)c2cc(O)c(O)c(OC(=O)c3cc(O)c(O)c(O)c3)c2)[C@H](OC(=O)c2cc(O)c(O)c(OC(=O)c3cc(O)c(O)c(O)c3)c2)[C@@H](OC(=O)c2cc(O)c(O)c(OC(=O)c3cc(O)c(O)c(O)c3)c2)[C@@H]1OC(=O)c1cc(O)c(O)c(OC(=O)c2cc(O)c(O)c(O)c2)c1)c1cc(O)c(O)c(OC(=O)c2cc(O)c(O)c(O)c2)c1 [Tannic acid (TA), Tannic acid]
relative equilibrium constant with PEG-FPBA [2]: 1,877
bonding constant with PEG-P[Lys(FPBA)10]20 as compared with PEG-FPBA [3]: 5 times
relative equilibrium constant with PEG10k-P[Lys(FPBA)10]20 [3]: 8,827

Bleomycin sulfate
Particle diameter of encapsulated substance [1]: 0.6 nm

Gelonin
Particle diameter of encapsulated substance [1]: 4.1 nm

β-D-galactosidase: β-D-galactosidase (βGal): Mw 540 kDa, enzyme
Particle diameter of encapsulated substance [1]: 13.9 nm
Particle diameter of complex ([1]; ternary complex substance/TA/PEG-P[Lys(FPBA)10]20, dynamic light scattering method): 42.8* nm
Polydiversity (PDI) ([1]; ternary complex, dynamic light scattering method): 0.18
